Test results: patent US9394297B2, “Amides as pim inhibitors” (AMGEN INC., priority 2012, dated 2016)
Where two headings read alike, the source gives them in different places.

Legend:
KMS-12-BM cell lines = test: KMS12 #2 flow cytometry assay (phospho-BAD Ser112); format: cell-based; conditions: Homo sapiens, 110 min; KMS-12-BM cells, pBAD Ser112 by flow cytometry, 110 min with compound; read-out: KMS-12-Flow IC50 IP
Pim-2 = Pim-2 (Homo sapiens (Human), UniProt Q9P1W9); test: Pim-Mn enzyme assay (HTRF, 384-well), Pim-2; format: biochemical; conditions: Pim-2 enzyme 0.5 pM, ATP 1.5 μM, BAD (S112) 0.5 μM, HTRF, 22-point curve; read-out: Pim-2-Mn IC50 IP
Pim-1 = Pim-1 (Homo sapiens (Human), UniProt P11309); test: Pim-Mn enzyme assay (HTRF, 384-well), Pim-1; format: biochemical; conditions: read-out: Pim-1-Mn IC50 IP
[1] = Pim-1 enzyme 5 pM, ATP 1.5 μM, BAD (S112) 0.5 μM, HTRF, 22-point curve

Sequence of Pim-1 (P11309 whole entry): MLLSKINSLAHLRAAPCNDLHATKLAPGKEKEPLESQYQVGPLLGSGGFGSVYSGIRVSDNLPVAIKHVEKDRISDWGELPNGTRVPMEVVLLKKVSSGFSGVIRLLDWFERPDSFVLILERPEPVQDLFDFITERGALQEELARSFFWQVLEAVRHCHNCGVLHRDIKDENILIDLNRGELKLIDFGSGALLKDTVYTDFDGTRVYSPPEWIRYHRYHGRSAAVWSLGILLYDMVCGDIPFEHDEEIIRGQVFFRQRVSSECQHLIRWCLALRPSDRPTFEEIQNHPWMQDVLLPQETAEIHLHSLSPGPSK
Sequence of Pim-2 (Q9P1W9 whole entry): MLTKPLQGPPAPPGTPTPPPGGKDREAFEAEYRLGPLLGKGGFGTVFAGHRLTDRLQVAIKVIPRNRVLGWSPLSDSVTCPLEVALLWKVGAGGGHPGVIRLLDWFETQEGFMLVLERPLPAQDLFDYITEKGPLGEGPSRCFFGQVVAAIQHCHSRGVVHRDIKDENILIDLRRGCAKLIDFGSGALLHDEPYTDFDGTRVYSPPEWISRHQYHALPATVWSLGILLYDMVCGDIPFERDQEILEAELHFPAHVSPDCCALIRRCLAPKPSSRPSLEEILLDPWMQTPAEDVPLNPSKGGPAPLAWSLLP

Cc1nc2ccc(F)c(-c3cc4c([nH]3)[C@H](C)NC4=O)c2nc1NC1(C)CC1 [Example 380, (S)-2-(6-fluoro-2-methyl-3-((1-methylcyclopropyl)amino)quinoxalin-5-yl)-6-methyl-5,6-dihydropyrrolo[3,4-b]pyrrol-4(1H)-one]
IC50 (KMS-12-BM cell lines): 34.7 nM
IC50 (Pim-2): 0.385 nM
IC50 (Pim-1; [1]): 0.249 nM

Cc1nc2cccc(-c3cc4c([nH]3)CCN(C(=O)OC(C)(C)C)C4=O)c2nc1NC(C)(C)C [Example 291, tert-butyl 2-(3-(tert-butylamino)-2-methylquinoxalin-5-yl)-4-oxo-6,7-dihydro-1H-pyrrolo[3,2-c]pyridine-5(4H)-carboxylate]
IC50 (KMS-12-BM cell lines): 7920 nM
IC50 (Pim-2): 65.2 nM
IC50 (Pim-1; [1]): 99 nM

Cc1nc2cccc(-c3cc4c([nH]3)CCNC4=O)c2nc1NC(=N)N [Example 447, 1-(3-methyl-8-(4-oxo-4,5,6,7-tetrahydro-1H-pyrrolo[3,2-c]pyridin-2-yl)quinoxalin-2-yl)guanidine]
IC50 (KMS-12-BM cell lines): 2630 nM
IC50 (Pim-2): 139 nM
IC50 (Pim-1; [1]): 133 nM

Cc1nc2cccc(-c3cc4c([nH]3)CCNC4=O)c2nc1-c1ccccc1Cl [Example 427, 2-(3-(2-Chlorophenyl)-2-methylquinoxalin-5-yl)-6,7-dihydro-1H-pyrrolo[3,2-c]pyridin-4(5H)-one]
IC50 (KMS-12-BM cell lines): > 40000 nM
IC50 (Pim-2): 82 nM
IC50 (Pim-1; [1]): 23.3 nM

Cc1nc2ccc(F)c(-c3cc4c([nH]3)C3(CC3)NC4=O)c2nc1NC(C)(C)C [Example 295, 2′-(3-(tert-butylamino)-6-fluoro-2-methylquinoxalin-5-yl)-1′H-spiro[cyclopropane-1,6′-pyrrolo[3,4-b]pyrrol]-4′(5′H)-one]
IC50 (KMS-12-BM cell lines): 41 nM
IC50 (Pim-2): 0.52 nM
IC50 (Pim-1): 0.562 nM

Cc1nc2ccc(F)c(-c3cc4c([nH]3)[C@H]([C@@H](C)O)NC4=O)c2nc1NC1CC1 [Example 352, (6R)-2-(3-(cyclopropylamino)-6-fluoro-2-methyl-5-quinoxalinyl)-6-((1R)-1-hydroxyethyl)-5,6-dihydropyrrolo[3,4-b]pyrrol-4(1H)-one]
IC50 (KMS-12-BM cell lines): 188 nM
IC50 (Pim-2): 2.45 nM
IC50 (Pim-1; [1]): 1.59 nM

Cc1nc2cccc(-c3cc4c([nH]3)CCNC4=O)c2nc1N[C@H]1C[C@@H](NCCS(C)(=O)=O)C1 [Example 441, 2-(2-Methyl-3-((cis-3-((2-(methylsulfonyl)ethyl)amino)cyclobutyl)amino)quinoxalin-5-yl)-6,7-dihydro-1H-pyrrolo[3,2-c]pyridin-4(5H)-one]
IC50 (KMS-12-BM cell lines): > 40000 nM
IC50 (Pim-2): 1.3 nM
IC50 (Pim-1; [1]): 0.7 nM

C[C@H](O)c1nc2cccc(-c3cc4c([nH]3)CCNC4=O)c2nc1NC(C)(C)C [Example 310, (S)-2-(3-(tert-butylamino)-2-(1-hydroxyethyl)quinoxalin-5-yl)-6,7-dihydro-1H-pyrrolo[3,2-c]pyridin-4(5H)-one]
IC50 (KMS-12-BM cell lines): 344 nM
IC50 (Pim-2): 3 nM
IC50 (Pim-1; [1]): 4 nM

CC(C)(C)Nc1nc2c(-c3cc4c([nH]3)CCNC4=O)cccc2nc1N1CC(O)C1 [Example 346, 2-(3-(tert-butylamino)-2-(3-hydroxy-1-azetidinyl)-5-quinoxalinyl)-1,5,6,7-tetrahydro-4H-pyrrolo[3,2-c]pyridin-4-one]
IC50 (KMS-12-BM cell lines): 1120 nM
IC50 (Pim-2): 10.8 nM
IC50 (Pim-1; [1]): 4.07 nM

COCCOCC(C)(C)Nc1nc2c(-c3cc4c([nH]3)CCNC4=O)cccc2nc1C [Example 317, 2-(3-((2-(2-methoxyethoxy)-1,1-dimethylethyl)amino)-2-methyl-5-quinoxalinyl)-1,5,6,7-tetrahydro-4H-pyrrolo[3,2-c]pyridin-4-one]
IC50 (KMS-12-BM cell lines): 1360 nM
IC50 (Pim-2): 14.7 nM
IC50 (Pim-1; [1]): 9.94 nM

CC(C)Nc1nc2c(-c3cc4c([nH]3)CCNC4=O)cccc2c(=O)n1-c1ccccc1 [Example 402, 2-((1-methylethyl)amino)-8-(4-oxo-4,5,6,7-tetrahydro-1H-pyrrolo[3,2-c]pyridin-2-yl)-3-phenyl-4(3H)-quinazolinone]
IC50 (KMS-12-BM cell lines): 590 nM
IC50 (Pim-2): 5.87 nM
IC50 (Pim-1; [1]): 5.91 nM
